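Tested at 5 concentrations; 48 h exposure; 96-well plates; endpoints linearly interpolated, else capped at highest concentration. GI50 = concentration required for 50% inhibition of growth.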 The source made the active and inactive calls. No stated cut-off is given here; in the data, active = GI50 up to about 1.1 µM and inactive = higher.
Legend:
Assay in all cases: growth of human tumour cells (NCI), 48 h
LOX IMVI = tested on: LOX IMVI
CAKI-1 = tested on: CAKI-1
Malme-3M = tested on: Malme-3M
NCI-H23 = tested on: NCI-H23
TK-10 = tested on: TK-10
OVCAR-5 = tested on: OVCAR-5
OVCAR-8 = tested on: OVCAR-8
SK-OV-3 = tested on: SK-OV-3
EKVX = tested on: EKVX
M14 = tested on: M14
HCT-15 = tested on: HCT-15
A549 = tested on: A549
OVCAR-3 = tested on: OVCAR-3
IGROV-1 = tested on: IGROV-1
UACC-62 = tested on: UACC-62
SN12C = tested on: SN12C
SW-620 = tested on: SW-620
COLO 205 = tested on: COLO 205
KM12 = tested on: KM12
HCC 2998 = tested on: HCC 2998

SMILES | GI50 (LOX IMVI) | GI50 (CAKI-1) | GI50 (Malme-3M) | GI50 (NCI-H23) | GI50 (TK-10) | GI50 (OVCAR-5) | GI50 (OVCAR-8) | GI50 (SK-OV-3) | GI50 (EKVX) | GI50 (M14) | GI50 (HCT-15) [µM] | GI50 (A549) | GI50 (OVCAR-3) | GI50 (IGROV-1) | GI50 (UACC-62) | GI50 (SN12C) | GI50 (SW-620) | GI50 (COLO 205) | GI50 (KM12) | GI50 (HCC 2998)
CCOC(=O)C1CCn2c(nc3c(=O)n(C)c(=O)n(C)c32)S1 (configuration not stated) | > 100 µM (inactive) | > 100 µM (inactive) | > 100 µM (inactive) | > 100 µM (inactive) | > 100 µM (inactive) | > 100 µM (inactive) | > 100 µM (inactive) | > 100 µM (inactive) | > 100 µM (inactive) | > 100 µM (inactive) | > 100 | > 100 µM (inactive) | > 100 µM (inactive) | > 100 µM (inactive) | > 100 µM (inactive) | > 100 µM (inactive) | > 100 µM (inactive) |  |  | 
CN(C)CN1C(=O)/C(=N\n2c(S)nnc2-c2ccncc2)c2ccccc21 | 22.9 µM (inactive) | 69.3 µM (inactive) | > 100 µM (inactive) | 37.8 µM (inactive) | 41.9 µM (inactive) | > 100 µM (inactive) | 23.7 µM (inactive) | 31.7 µM (inactive) | > 100 µM (inactive) | 24.8 µM (inactive) | 28.1 | 55 µM (inactive) | 66.5 µM (inactive) | 38.5 µM (inactive) | 42.4 µM (inactive) | 35.2 µM (inactive) | 18.8 µM (inactive) | 38.3 µM (inactive) | 43.7 µM (inactive) | 
Cc1ncc2c(n1)CCC1=C2OS(=O)(=O)CC1N(C)C (configuration not stated) | > 100 µM (inactive) | 69.5 µM (inactive) |  | > 100 µM (inactive) | > 100 µM (inactive) | > 100 µM (inactive) | > 100 µM (inactive) | > 100 µM (inactive) | > 100 µM (inactive) | 95.9 µM (inactive) |  | > 100 µM (inactive) | > 100 µM (inactive) | > 100 µM (inactive) | 96.6 µM (inactive) | > 100 µM (inactive) | > 100 µM (inactive) | > 100 µM (inactive) | > 100 µM (inactive) | 
COc1ccc(C(=O)/C=C/S/C(=N/C#N)SC)cc1 |  | 22.9 µM (inactive) | 24.5 µM (inactive) | 16.9 µM (inactive) | 20.8 µM (inactive) | 24 µM (inactive) | 21 µM (inactive) | 26.2 µM (inactive) | 35.3 µM (inactive) | 18.3 µM (inactive) | 13.8 | > 100 µM (inactive) | 16.4 µM (inactive) | 21.8 µM (inactive) | 20 µM (inactive) | 24.4 µM (inactive) | 16.8 µM (inactive) | 19.7 µM (inactive) | 25.9 µM (inactive) | 
CC(=O)C1C(=O)C(=O)N(c2ccc(Cl)cc2C)C1=O (configuration not stated) |  |  | > 100 µM (inactive) | > 100 µM (inactive) | > 100 µM (inactive) | > 100 µM (inactive) | > 100 µM (inactive) |  | > 100 µM (inactive) | > 100 µM (inactive) | > 100 | > 100 µM (inactive) |  | > 100 µM (inactive) | > 100 µM (inactive) | > 100 µM (inactive) | > 100 µM (inactive) | > 100 µM (inactive) | > 100 µM (inactive) | > 100 µM (inactive)
COc1ccc2c(c1)[n+]([O-])c(-c1cccc(Cl)c1)c(N)[n+]2[O-] |  | 62.4 µM (inactive) | 37.2 µM (inactive) | 23.9 µM (inactive) |  | 33.1 µM (inactive) | 40.3 µM (inactive) | 95.9 µM (inactive) | > 100 µM (inactive) |  |  | 32.7 µM (inactive) | 36.2 µM (inactive) | 46.8 µM (inactive) |  | 48.4 µM (inactive) | 39.7 µM (inactive) | 16.6 µM (inactive) | 48.6 µM (inactive) | 
COc1ccc(/C=C2/SC(c3ccccc3)N(NC(=O)CCCCCCCCC(=O)NN3C(=O)/C(=C\c4ccc(OC)c(OC)c4)SC3c3ccccc3)C2=O)cc1OC (configuration not stated) |  | 53.6 µM (inactive) |  | 38.4 µM (inactive) | > 100 µM (inactive) | > 100 µM (inactive) | 67.8 µM (inactive) | 48.6 µM (inactive) | 17.1 µM (inactive) | > 100 µM (inactive) | 55.2 | > 100 µM (inactive) | > 100 µM (inactive) | 1.03 µM (active) | 29 µM (inactive) | > 100 µM (inactive) | 54.8 µM (inactive) | > 100 µM (inactive) | 45 µM (inactive) | > 100 µM (inactive)
COc1ccc(/C(Cl)=C(\C=O)c2ccc(OC)c(OC)c2)cc1 | 23.3 µM (inactive) | 74.5 µM (inactive) | 17.4 µM (inactive) | 21.5 µM (inactive) | 68.2 µM (inactive) |  | 65.6 µM (inactive) | 62.4 µM (inactive) | 93.8 µM (inactive) | > 100 µM (inactive) | 52.1 |  | > 100 µM (inactive) | 46.1 µM (inactive) | 16.6 µM (inactive) | 81.8 µM (inactive) | > 100 µM (inactive) | > 100 µM (inactive) |  | 
COc1ccc(Br)c(CN2CCc3ccccc32)c1OS(=O)(=O)c1ccc(C)cc1 |  |  | 45.2 µM (inactive) | 23.9 µM (inactive) | 8.02 µM (inactive) | > 100 µM (inactive) | 47.5 µM (inactive) |  | 58.7 µM (inactive) | 13.9 µM (inactive) | 25.1 | 8.17 µM (inactive) | 5.07 µM (inactive) |  |  | 76 µM (inactive) | 16.3 µM (inactive) | 11.9 µM (inactive) | 7.66 µM (inactive) | 6.31 µM (inactive)
CCCCCCCCCCCCOCCOCCOCCOCCOCCOCC(=O)NC(Cc1ccccc1)C(=O)Oc1ccc([N+](=O)[O-])cc1 (configuration not stated) | 29.8 µM (inactive) | > 100 µM (inactive) | 29.6 µM (inactive) | 32.3 µM (inactive) | 38.3 µM (inactive) | > 100 µM (inactive) | 44.5 µM (inactive) | 64.9 µM (inactive) | 61.2 µM (inactive) | 31.5 µM (inactive) | 37 | 43 µM (inactive) | 22.9 µM (inactive) | 44.3 µM (inactive) | 21.8 µM (inactive) |  | 36.2 µM (inactive) | 15.8 µM (inactive) | 40.1 µM (inactive) | 
COC(C(O)c1ccc2c(c1)OCO2)P(=O)(c1ccccc1)c1ccccc1 (configuration not stated) |  | 33.6 µM (inactive) | 16 µM (inactive) | 30.8 µM (inactive) | > 100 µM (inactive) | > 100 µM (inactive) | 62.1 µM (inactive) | > 10 µM (inactive) | > 100 µM (inactive) | > 100 µM (inactive) |  |  | 15.1 µM (inactive) | > 100 µM (inactive) | 32.4 µM (inactive) | 62.8 µM (inactive) | > 100 µM (inactive) |  | > 100 µM (inactive) | 
COc1ccc(CC2(O)C3CC4CCC2C4C3)cc1 (configuration not stated) | > 100 µM (inactive) | > 100 µM (inactive) | > 100 µM (inactive) | 64.4 µM (inactive) | 69.3 µM (inactive) | > 100 µM (inactive) | > 100 µM (inactive) | > 100 µM (inactive) | 49.8 µM (inactive) | > 100 µM (inactive) | > 100 | 79.4 µM (inactive) | > 100 µM (inactive) | > 100 µM (inactive) | > 100 µM (inactive) | 77.4 µM (inactive) | > 100 µM (inactive) | 74.3 µM (inactive) | > 100 µM (inactive) | 

— ChEMBL document CHEMBL1201862, “PubChem BioAssay data set” (2004)
